Data set [1] can be described thus: Malonic acid solubility in water. Type of data set: physicochemical.
Data set [2] relates to MdcY-PMdcL based biosensor. Kind of data set: MdcY malonate transcription factor biosensor using exogenously added malonate. It is filed as cell-based, E. coli. The text has this: S14 employs the malonate responsive transcription factor, MdcY (SEQ ID NO:3), and the MdcY-responsive promoter, PMdcL (SEQ ID NO:6) derived from Acinetobacter calcoaceticus. This biosensor of this disclosure was constructed using an E. coli vector backbone with ampicillin resistance marker and ColE1 origin of replication; the tetA tetracycline resistance gene was placed under control of the PMdcL promoter.
Nucleic acids encoding for MdcY and TetA gene products, PMdcL promoter, and the E. coli vector backbone were synthetically produced; the biosensor vectors were than constructed by PCR amplification of the nucleic acids and subsequent cloning into the E. coli vector backbone. The plasmids were transformed into chemically competent E. coli DH10b and the resulting clones plated on LB agar plates containing 50 μg/ml carbenicillin (Cb^50). Individual colonies were grown overnight in 3 ml LB medium supplemented with antibiotic and the sequences of the purified plasmid were verified.
E. coli strain K12 was co-transformed with plasmids S14 and individual colonies isolated from LB agar plates (Cb^50). Colonies were grown in 25 ml LB broth (Cb^50) until reaching an optical density at 600 nm (OD600) of approximately 0.50, at which point in time cell stocks were prepared and stored at −80° C.; cell stocks were 0.5 ml cell culture and 0.5 ml of a 50% v/v glycerol solution.
An aliquot of biosensor cell stock was thawed and used to inoculate 50 ml of LB medium (Cb^50) in a 250 ml, baffled Erlenmeyer flask. Cultures were incubated for 2 hours at 37° C.; subsequently, 0.6 ml biosensor culture was added to 48-well plates prepared with 2.3 ml LB medium)(Cb^50) supplemented with tetracycline and malonate acid at the desired concentration (n=4). Plates were than grown at 30° C. on an orbital titer plate shaker. Following 12 hours incubation, 200 μl samples were taken for OD600 measurement.

Data set [3] has as its system S. cerevisiae BY4741 yeast cells. Kind of data set: Production of malonate in yeast expressing various malonyl-CoA hydrolases. Type of data set: cell-based. Particulars: S. cerevisiae BY4741, SD-Ura, 30° C., 140 h of fermentation; mean±S.D.; n=4. From the text: Nucleic acids encoding various malonyl-CoA hydrolases provided by this disclosure [EHD3 (E124S), B9IZZ9-1, F0PNG8-1, H0NHL7, C3ALI3-1, Q81DR3-1, A4XS22-1, E2XN63-1, A5W8H3-1 and F6AA82-2] were amplified by PCR from plasmids using the primers listed in Table 4. The purified PCR products were cloned downstream of the TEF1 promoter and upstream of the CYC1 terminator in a shuttle vector containing an ampicillin resistance cassette, a PMB1 origin of replication, a CEN/ARS origin of replication and a URA3 selection marker. The resulting plasmids were transformed into E. coli competent host cells and selected on LB agar plates containing Cb^50. Following overnight incubation at 37° C., individual colonies were inoculated in 2 ml of LB-Cb^50 in a 48-well plate and grown for 5 h at 37° C. on a shaker before the plasmids were isolated and confirmed by sequencing.
S. cerevisiae BY4741 yeast cells were used as host for the vectors for expression of the various malonyl-CoA hydrolases. The plasmid vectors were individually introduced into the yeast host cells using standard procedures. […]
An individual colony for each transformant picked was inoculated into a 50 μl aliquot of SD-Ura medium in a 96-well plate. […] No malonate was detected in samples consisting of medium not inoculated with yeast cells. […]

A further data set relates to E. coli strain K12. The data set can be described thus: In vivo production of malonate in E. coli using S. cerevisiae EHD3 malonyl-CoA hydrolases. Type of data set: cell-based. Here is the method: This example describes the host cells and culture conditions resulting in the in vivo production of malonate using a heterologous EHD3 malonyl-CoA hydrolase in an E. coli host cell. E. coli strain K12 was transformed with vectors containing wild-type EHD3, EHD3 (E124A), […], EHD3 (E124S), EHD3 (E124A, E308V) or an empty vector negative control. Transformants were streaked on LB agar plates (Cm^50, 2% glucose). Following overnight growth at 37° C., individual colonies were inoculated into 3 ml LB (Cm^50, 2% glucose) in a 48-well plate. Cultures were incubated on a plate shaker at 37° C. for 6 hours, at which point each culture was inoculated 1% v/v into M9 minimal medium supplemented with Cm^50 and a mixed carbon source (0.5% glycerol, 0.05% glucose, 0.2% lactose) in a 48-well plate. Cultures were incubated on a plate shaker at 30° C., and a 500 μL sample of the fermentation broth was removed for analysis after 48 hours incubation.
Samples were centrifuged (×6000 g, 1 min) and the supernatant analyzed for malonate quantification. Chemical standards were prepared in […] of water. The separation of malonate was conducted on a Shimadzu Prominence XR UPLC connected to a refractive index detector and UV detector monitoring 210 nm. Product separation was performed on a Bio-Rad Fermentation Monitoring column. The UPLC was programmed to run isocratically using 5 mM H2504 as the eluant with a flow rate of 600 μL per minute. 10 μL were injected per sample, and the sample plate temperature was held at 4° C. Malonate standards began eluting at […]. […] Malonate concentrations (mg/1) were calculated by comparison to a standard curve prepared from authentic malonate.

Setting [4] is: plasmid S14, tetracycline, 12 hours, 30° C.

As for `O=C(O)CC(=O)O` [malonic acid, propanedioic acid], the “Malonic acid solubility in water” value in data set [1] (5 ° C.) is given as 53.92 % (w/w); in data set [1] (10 ° C.) it was 55.75 % (w/w); in data set [1] (15 ° C.), 57.63 % (w/w); in data set [1] (20 ° C.) it was 59.68 % (w/w); in data set [1] (25 ° C.) it was 61.69 % (w/w); in data set [1] (30 ° C.) it was 63.5 % (w/w). The “Malonic acid solubility in water” value in data set [1] (35 ° C.) was 65.28 % (w/w); in data set [1] (40 ° C.), 67.43 % (w/w); in data set [1] (45 ° C.), 68.85 % (w/w); in data set [1] (50 ° C.), 70.33 % (w/w); in data set [1] (55 ° C.), 72.38 % (w/w); in data set [1] (60 ° C.), 74.29 % (w/w). Besides, in data set [1] (65° C.), the “Malonic acid solubility in water” value was 75.96 % (w/w). The molecule also yielded a solubility limit in data set [1] (65° C.) of 76 % wt/wt. In addition, the biosensor response entry in data set [2] (cultures harboring S14) is given as “dose-dependent response”. The “dynamic range (maximum difference in OD600 between fully induced samples and samples absent malonate)” value in data set [2] (setting [4]) was determined as 1.2 OD600 units. Moreover, the “exogenously added malonate concentration over which an increase in OD600 was observed” value in data set [2] (setting [4]) lay within 0.5 to 1 mM.

B1: EHD3 (E124S) (protein, UniProt P28817 1-500, looked up, variant E124S)
Small ribosomal subunit …: MLRNTLKCAQLSSKYGFKTTTRTFMTTQPQLNVTDAPPVLFTVQDTARVITLNRPKKLNALNAEMSESMFKTLNEYAKSDTTNLVILKSSNRPRSFCAGGDVATVAIFNFNKEFAKSIKFFTDSYSLNFQIATYLKPIVTFMDGITMGGGVGLSIHTPFRIATENTKWAMPEMDIGFFPDVGSTFALPRIVTLANSNSQMALYLCLTGEVVTGADAYMLGLASHYVSSENLDALQKRLGEISPPFNNDPQSAYFFGMVNESIDEFVSPLPKDYVFKYSNEKLNVIEACFNLSKNGTIEDIMNNLRQYEGSAEGKAFAQEIKTKLLTKSPSSLQIALRLVQENSRDHIESAIKRDLYTAANMCMNQDSLVEFSEATKHKLIDKQRVPYPWTKKEQLFVSQLTSITSPKPSLPMSLLRNTSNVTWTQYPYHSKYQLPTEQEIAAYIEKRTNDDTGAKVTEREVLNHFANVIPSRRGKLGIQSLCKIVCERKCEEVNDGLRWK
Consider B1, for which the “Malonate Peak Area” value in data set [3] is 94,721 ± 8,115. For the same molecule, the “malonate production relative to wild-type EHD3” value in the data set with E. coli strain K12 (E. coli K12, 48 hours) is “significant (p<0.05, t-test) increase”. For the same molecule, the “Malonate Concentration” value in the data set with E. coli strain K12 (E. coli K12, M9 minimal medium, 30° C., 48 hours, mean±std dev, n=3) was found to be 82.3 ± 7.8 mg/L.

(Values after US11597951B2 (Lygos, Inc., priority 2018, dated 2023).)
